Assay results published in US12414952B2 (Merck Sharp & Dohme LLC, priority 2018, dated 2025).

Columns and labels:
[1] = target: human A2b adenosine receptor (Homo sapiens (Human), UniProt P29275); assay: A2b binding affinity, radioligand filtration binding assay; conditions: tritiated proprietary A2b antagonist, HEK293 membranes
Procedure: Measurement of A2b Binding Affinity
The reported affinity of the compounds of the invention for the human A2b adenosine receptor was determined experimentally using a radioligand filtration binding assay. This assay measures the amount of binding of a tritiated proprietary A2b receptor antagonist, in the presence and absence of a compound of the invention, to membranes made from HEK293 cells recombinantly expressing the human A2b adenosine receptor (Perkin Elmer, Cat. No. ES-013-C).
The filter plate was incubated for at least 1 h at 55° C. and allowed to dry. The bottom of the filter plate was then sealed with backing tape. […] The plates were then incubated for at least 20 min, and then the amount of radioactivity remaining in each well was determined using a TopCount® (Perkin Elmer) scintillation counter. After normalization to total and non-specific binding, the percent effect at each compound concentration was calculated. The plot of percent effect versus the log of compound concentration was analyzed electronically using a 4-parameter logistic fit based on the Levenberg-Marquardt algorithm to generate IC50 values.

[2] = target: human A2a adenosine receptor (Homo sapiens (Human), UniProt P29274); assay: A2a binding affinity using radioligand binding, Method (A); conditions: Method (A): [3H]SCH58261 filtration binding
Sequence of human A2a adenosine receptor (P29274 whole entry): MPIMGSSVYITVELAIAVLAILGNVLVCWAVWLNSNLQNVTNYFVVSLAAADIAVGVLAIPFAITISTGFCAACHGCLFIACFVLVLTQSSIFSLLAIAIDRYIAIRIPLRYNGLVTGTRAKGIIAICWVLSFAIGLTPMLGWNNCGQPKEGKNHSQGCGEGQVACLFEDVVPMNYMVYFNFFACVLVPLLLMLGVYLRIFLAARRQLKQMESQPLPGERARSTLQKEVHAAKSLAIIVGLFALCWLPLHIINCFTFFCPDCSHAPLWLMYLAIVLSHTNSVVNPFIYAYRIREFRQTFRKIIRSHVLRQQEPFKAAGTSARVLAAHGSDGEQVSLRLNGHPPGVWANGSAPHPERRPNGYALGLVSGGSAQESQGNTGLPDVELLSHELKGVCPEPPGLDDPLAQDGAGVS
Source text: The A2a receptor affinity binding assay measured the amount of binding of a tritiated ligand with high affinity for the A2a adenosine receptor to membranes made from HEK293 or CHO cells recombinantly expressing the human A2a adenosine receptor, in the presence of varying concentrations of a compound of the invention. The data were generated using either filtration binding or a homogenous scintillation proximity assay (SPA).
Method (A): Measurement of A2a Binding Affinity Using Radioligand Binding
148 μL (5 μg/mL) membranes (Perkin Elmer, Cat. No. RBHA2aM400UA) and 2 μL compounds of the invention to be tested (test compound) were transferred to individual wells of a 96-well polypropylene assay plate and incubated for 15 to 30 min at room temperature. [^3H] SCH58261 ((7-(2-phenylethyl)-5-amino-2-(2-furyl)-pyrazolo-[4,3-e]-1,2,4-triazolo[1,5-c]pyrimidine)) was diluted in assay buffer (50 mM Tris pH 7.4, 10 mM MgCl2, 0.005% Tween20) to a concentration of 4 nM and 50 μL transferred to each well of the assay plate. […] The assay plate was incubated at room temperature for 60 min with agitation. […] Filtering was achieved by aspirating the contents of the assay plate for 5 sec, then washing and aspirating the contents three times with ice-cooled wash buffer (50 mM Tris-HCl pH 7.4, 150 mM NaCl) and allowing the vacuum manifold to dry the plate for […]. The filter plate was incubated for at least 1 h at 55° C. and allowed to dry. The bottom of the filter plate was sealed with backing tape. […] The plate was incubated for at least 20 min, and then the amount of radioactivity remaining in each well was determined using a TopCount® (Perkin Elmer) scintillation counter. After normalization to total and non-specific binding, the percent effect at each compound concentration was calculated. The plot of percent effect versus the log of compound concentration was analyzed electronically using a 4-parameter logistic fit based on the Levenberg-Marquardt algorithm to generate IC50 values.

Sequence of human A2b adenosine receptor (P29275 whole entry): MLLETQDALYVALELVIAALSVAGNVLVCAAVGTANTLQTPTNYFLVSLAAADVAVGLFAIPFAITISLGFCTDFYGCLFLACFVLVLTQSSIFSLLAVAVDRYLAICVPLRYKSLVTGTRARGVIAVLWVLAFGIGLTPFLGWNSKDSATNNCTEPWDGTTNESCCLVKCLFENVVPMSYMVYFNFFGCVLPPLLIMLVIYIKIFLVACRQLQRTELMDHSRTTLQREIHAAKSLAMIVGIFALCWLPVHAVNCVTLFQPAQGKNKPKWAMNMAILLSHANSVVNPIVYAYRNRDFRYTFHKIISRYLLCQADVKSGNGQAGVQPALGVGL

Structure (SMILES)	IC50 [1]	IC50 [2]
CC(C)c1ncc2n1CCN(CCc1nc3cc(-c4cc(F)ccc4F)nc(N)n3n1)C2 [Example 2.11]	178 nM	246 nM
CC(C)c1ncc2n1CCN(CCc1nc3cc(-c4cc(F)ccc4Cl)nc(N)n3n1)C2 [Example 2.12]	215 nM	440 nM
CC(C)c1ncc2n1CCN(CCc1nc3cc(-c4cccc(F)c4)nc(N)n3n1)C2 [Example 2.13]	95.5 nM	35.4 nM
CC(C)c1ncc2n1CCN(CCc1nc3cc(-c4cc(F)cc(F)c4)nc(N)n3n1)C2 [Example 2.14]	223 nM	362 nM
Cc1c(-c2cccc(F)c2)nc(N)n2nc(CCN3CCn4c(cnc4C(C)C)C3)nc12 [Example 2.15]	36.8 nM	16.4 nM
Cc1c(-c2cccc(F)c2)nc(N)n2nc(CCN3CCc4c(nnn4C(C)C)C3)nc12 [Example 2.16]	73.4 nM	2.3 nM
CC(C)n1nnc2c1CCN(CCc1nc3cc(-c4cccc(C#N)c4F)nc(N)n3n1)C2 [Example 2.24]	73.6 nM	0.9 nM
Cc1c(-c2cncc(C(F)(F)F)c2)nc(N)c2nc(Cc3ccccc3)nn12 [Example 3.22]	8700 nM	836 nM
Cc1c(-c2cccc(Cl)c2)nc(N)c2nc(Cc3ccccc3)nn12 [Example 3.23]	13.6 nM	2.7 nM
Cc1c(-c2cc(Cl)ccc2F)nc(N)c2nc(Cc3ccccc3)nn12 [Example 3.24]	2.4 nM	0.7 nM
Cc1c(-c2cc(F)cc(F)c2)nc(N)c2nc(Cc3ccccc3)nn12 [Example 3.25]	19.8 nM	1.6 nM
Cc1c(-c2cc(F)cc(F)c2F)nc(N)c2nc(Cc3ccccc3)nn12 [Example 3.26]	2.7 nM	2.5 nM
COc1ncc(-c2nc(N)c3nc(Cc4ccccc4)nn3c2C)cc1Cl [Example 3.27]	145 nM	11 nM
Cc1c(-c2cc(F)cc(Cl)c2)nc(N)c2nc(Cc3ccccc3)nn12 [Example 3.28]	34.4 nM	2.9 nM
Cc1c(-c2cccc(F)c2F)nc(N)c2nc(Cc3ccccc3)nn12 [Example 3.29]	39.4 nM	4 nM
Cc1c(-c2cccc(Cl)c2F)nc(N)c2nc(Cc3ccccc3)nn12 [Example 3.30]	46.2 nM	7.6 nM
COc1cc(F)cc(-c2nc(N)c3nc(Cc4ccccc4)nn3c2C)c1 [Example 3.31]	134 nM	6.2 nM
Cc1c(-c2cncc(Cl)c2)nc(N)c2nc(Cc3ccccc3)nn12 [Example 3.32]	147 nM	13.1 nM
Cc1c(-c2ccc(F)c(Cl)c2)nc(N)c2nc(Cc3ccccc3)nn12 [Example 3.33]	117 nM	27.2 nM

More lines, now with the values ahead:

IC50 [1]	IC50 [2]	Structure (SMILES)
95.8 nM	32.2 nM	Cc1c(-c2cc(F)c(F)cc2F)nc(N)c2nc(Cc3ccccc3)nn12 [Example 3.34]
700 nM	65.6 nM	Cc1ccc(F)cc1-c1nc(N)c2nc(Cc3ccccc3)nn2c1C [Example 3.35]
154 nM	76.5 nM	Cc1c(-c2cc(F)c(F)c(F)c2)nc(N)c2nc(Cc3ccccc3)nn12 [Example 3.36]
3710 nM	1000 nM	Cc1ccc(-c2nc(N)c3nc(Cc4ccccc4)nn3c2C)cc1F [Example 3.37]
85.7 nM	97.6 nM	Cc1c(-c2cc(F)ccc2Cl)nc(N)c2nc(Cc3ccccc3)nn12 [Example 3.38]
1020 nM	98.5 nM	Cc1c(F)cccc1-c1nc(N)c2nc(Cc3ccccc3)nn2c1C [Example 3.39]
315 nM	280 nM	Cc1c(-c2ccc(F)c(F)c2F)nc(N)c2nc(Cc3ccccc3)nn12 [Example 3.40]
747 nM	289 nM	Cc1c(-c2cccc(F)c2Cl)nc(N)c2nc(Cc3ccccc3)nn12 [Example 3.41]
1730 nM	499 nM	Cc1c(-c2ccc(C#N)c(F)c2)nc(N)c2nc(Cc3ccccc3)nn12 [Example 3.42]
2520 nM	611 nM	COc1ccc(F)cc1-c1nc(N)c2nc(Cc3ccccc3)nn2c1C [Example 3.43]
82.6 nM	4.4 nM	Cc1c(-c2ccn(C)n2)nc(N)c2nc(Cc3ccccc3)nn12 [Example 3.46]
47.3 nM	9.9 nM	Cc1cccnc1Cc1nc2c(N)nc(-c3cc(F)ccc3F)c(C)n2n1 [Example 4.3, 6-(2,5-difluorophenyl)-5-methyl-2-((3-methylpyridin-2-yl)methyl)-[1,2,4]triazolo[1,5-a]pyrazin-8-amine]
26 nM	22.8 nM	Cc1c(-c2cc(F)ccc2F)nc(N)c2nc(Cc3ccc(F)cn3)nn12 [Example 4.4]
31.8 nM	23.8 nM	Cc1c(-c2cc(F)ccc2F)nc(N)c2nc(Cc3cccc4c3ncn4CC(F)F)nn12 [Example 4.5]
7.6 nM	35.3 nM	Cc1c(-c2ncco2)nc(N)n2nc(Cc3ccc4c(c3)ncn4CC(F)F)nc12 [Example 4.7]
9.3 nM	18.7 nM	Cc1c(-c2cc(F)ccc2F)nc(N)c2nc(Cc3ncccc3F)nn12 [Example 4.8]
1.2 nM	0.2 nM	Cc1c(-c2ncco2)nc(N)c2nc(Cc3cccc4c3ncn4CC(C)(C)O)nn12 [Example 4.9]
6.5 nM	0.7 nM	Cc1c(-c2ncco2)nc(N)c2nc(Cc3cccc4c3ncn4CC(F)F)nn12 [Example 4.10]
66.5 nM	48.2 nM	Cc1c(-c2ncco2)nc(N)c2nc(Cc3ccc(C(C)(C)O)cn3)nn12 [Example 4.11]
1.6 nM	2.5 nM	Cc1c(-c2ncco2)nc(N)n2nc(Cc3ccc([C@H]4C[C@@](C)(O)C4)cc3)nc12 [Example 5.2, (1s,3s)-3-(4-((5-amino-8-methyl-7-(oxazol-2-yl)-[1,2,4]triazolo[1,5-c]pyrimidin-2-yl)methyl)phenyl)-1-methylcyclobutanol]
3.5 nM	12.1 nM	Cc1c(-c2ncco2)nc(N)n2nc(Cc3ccc([C@H]4C[C@](C)(O)C4)cc3)nc12 [Example 5.3, (1r,3r)-3-(4-((5-amino-8-methyl-7-(oxazol-2-yl)-[1,2,4]triazolo[1,5-c]pyrimidin-2-yl)methyl)phenyl)-1-methylcyclobutanol]
10.7 nM	17.1 nM	Cc1c(-c2ncco2)nc(N)n2nc(Cc3ccc(C4(O)CCC4)cc3)nc12 [Example 6.3, 1-(4-((5-amino-8-methyl-7-(oxazol-2-yl)-[1,2,4]triazolo[1,5-c]pyrimidin-2-yl)methyl)phenyl)cyclobutanol]
5.7 nM	4.9 nM	COC1(c2ccc(Cc3nc4c(C)c(-c5ncco5)nc(N)n4n3)cc2)CCC1 [Example 6.4, 2-(4-(1-methoxycyclobutyl)benzyl)-8-methyl-7-(oxazol-2-yl)-[1,2,4]triazolo[1,5-c]pyrimidin-5-amine]
5 nM	38.7 nM	Cc1c(-c2ncco2)nc(N)n2nc(Cc3ccc(C(C)(C)O)cc3)nc12 [Example 6.5, 2-(4-((5-amino-8-methyl-7-(oxazol-2-yl)-[1,2,4]triazolo[1,5-c]pyrimidin-2-yl)methyl)phenyl)propan-2-ol]
